Numbers after ± are expanded uncertainties.
Experiments:
[1] = 101 kPa, Liquid, Vibrating tube method
[2] = xn = mol fraction of the nth substance listed; conditions: 101 kPa, Liquid, Vibrating tube method, x2 = 0

Compound O [water] has a mass density ([1]; 283.15 K) of 999.701 ± 0.033 kg/m3, a mass density ([1]; 333.15 K) of 983.197 ± 0.041 kg/m3 and a mass density ([1]; 343.15 K) of 977.76 ± 0.043 kg/m3. The mass density ([1]; 353.15 K) was 971.788 ± 0.046 kg/m3 and the mass density ([1]; 363.15 K) was 965.305 ± 0.048 kg/m3.

Compound CCN(CC)CCO [(diethylamino)ethanol] + CNCCCN has a mass density ([2]; 283.15 K) of 894.423 ± 0.23 kg/m3, a mass density ([2]; 293.15 K) of 885.356 ± 0.23 kg/m3 and a mass density ([2]; 303.15 K) of 876.155 ± 0.23 kg/m3. The mass density ([2]; 313.15 K) was 866.828 ± 0.23 kg/m3, the mass density ([2]; 323.15 K) was 857.388 ± 0.23 kg/m3 and the mass density ([2]; 333.15 K) was 847.839 ± 0.23 kg/m3. For the same compound, the mass density ([2]; 343.15 K) was 838.157 ± 0.23 kg/m3, the mass density ([2]; 353.15 K) was 828.488 ± 0.23 kg/m3 and the mass density ([2]; 363.15 K) was 818.597 ± 0.24 kg/m3.

In the case of CN(CCO)CCO [N-methyldiethanolamine], the mass density ([1]; 293.15 K) is reported as 1040.06 ± 0.92 kg/m3, the mass density ([1]; 303.15 K) is reported as 1032.47 ± 0.9 kg/m3 and the mass density ([1]; 313.15 K) is reported as 1024.86 ± 0.89 kg/m3. For the same compound, the mass density ([1]; 323.15 K) was 1017.21 ± 0.87 kg/m3, the mass density ([1]; 333.15 K) was 1009.51 ± 0.86 kg/m3 and the mass density ([1]; 343.15 K) was 1001.73 ± 0.84 kg/m3. It also gave a mass density ([1]; 353.15 K) of 993.889 ± 0.83 kg/m3 and a mass density ([1]; 363.15 K) of 985.958 ± 0.82 kg/m3.

In the case of CN(C)CCO [2-(N,N-dimethylamino)ethanol], the mass density ([1]; 283.15 K) is reported as 894.959 ± 0.11 kg/m3, the mass density ([1]; 293.15 K) is reported as 886.56 ± 0.12 kg/m3 and the mass density ([1]; 303.15 K) is reported as 878.059 ± 0.12 kg/m3. The mass density ([1]; 313.15 K) was 869.428 ± 0.12 kg/m3, the mass density ([1]; 323.15 K) was 860.655 ± 0.12 kg/m3 and the mass density ([1]; 333.15 K) was 851.72 ± 0.13 kg/m3. The mass density ([1]; 343.15 K) was 842.604 ± 0.13 kg/m3, the mass density ([1]; 353.15 K) was 833.288 ± 0.13 kg/m3 and the mass density ([1]; 363.15 K) was 823.754 ± 0.14 kg/m3.

In the case of O [water] + CNCCCN, the mass density ([2]; 283.15 K) is reported as 999.701 ± 0.033 kg/m3, the mass density ([2]; 333.15 K) is reported as 983.197 ± 0.041 kg/m3 and the mass density ([2]; 343.15 K) is reported as 977.76 ± 0.043 kg/m3. For the same compound, the mass density ([2]; 353.15 K) was 971.788 ± 0.046 kg/m3 and the mass density ([2]; 363.15 K) was 965.305 ± 0.048 kg/m3.

For CNCCCN [N-methyl-1,3-diaminopropane], the mass density ([1]; 283.15 K) was 860.459 ± 0.68 kg/m3, the mass density ([1]; 293.15 K) was 851.605 ± 0.67 kg/m3 and the mass density ([1]; 303.15 K) was 842.69 ± 0.67 kg/m3. For the same compound, the mass density ([1]; 313.15 K) was 833.715 ± 0.66 kg/m3, the mass density ([1]; 323.15 K) was 824.673 ± 0.65 kg/m3 and the mass density ([1]; 333.15 K) was 815.559 ± 0.64 kg/m3. It also gave a mass density ([1]; 343.15 K) of 806.37 ± 0.63 kg/m3, a mass density ([1]; 353.15 K) of 797.093 ± 0.62 kg/m3 and a mass density ([1]; 363.15 K) of 787.723 ± 0.61 kg/m3.

For CN(CCO)CCO [N-methyldiethanolamine] + CNCCCN, the mass density ([2]; 293.15 K) was 1040.06 ± 0.92 kg/m3, the mass density ([2]; 303.15 K) was 1032.47 ± 0.9 kg/m3 and the mass density ([2]; 313.15 K) was 1024.86 ± 0.89 kg/m3. It also gave a mass density ([2]; 323.15 K) of 1017.21 ± 0.87 kg/m3, a mass density ([2]; 333.15 K) of 1009.51 ± 0.86 kg/m3 and a mass density ([2]; 343.15 K) of 1001.73 ± 0.84 kg/m3. The mass density ([2]; 353.15 K) was 993.889 ± 0.83 kg/m3 and the mass density ([2]; 363.15 K) was 985.958 ± 0.82 kg/m3.

CCN(CC)CCO [(diethylamino)ethanol] showed a mass density ([1]; 283.15 K) of 894.423 ± 0.23 kg/m3, a mass density ([1]; 293.15 K) of 885.356 ± 0.23 kg/m3 and a mass density ([1]; 303.15 K) of 876.155 ± 0.23 kg/m3. For the same compound, the mass density ([1]; 313.15 K) was 866.828 ± 0.23 kg/m3, the mass density ([1]; 323.15 K) was 857.388 ± 0.23 kg/m3 and the mass density ([1]; 333.15 K) was 847.839 ± 0.23 kg/m3. For the same compound, the mass density ([1]; 343.15 K) was 838.157 ± 0.23 kg/m3, the mass density ([1]; 353.15 K) was 828.488 ± 0.23 kg/m3 and the mass density ([1]; 363.15 K) was 818.597 ± 0.24 kg/m3.

CN(C)CCO [2-(N,N-dimethylamino)ethanol] + CNCCCN showed a mass density ([2]; 283.15 K) of 894.959 ± 0.11 kg/m3, a mass density ([2]; 293.15 K) of 886.56 ± 0.12 kg/m3 and a mass density ([2]; 303.15 K) of 878.059 ± 0.12 kg/m3. For the same compound, the mass density ([2]; 313.15 K) was 869.428 ± 0.12 kg/m3, the mass density ([2]; 323.15 K) was 860.655 ± 0.12 kg/m3 and the mass density ([2]; 333.15 K) was 851.72 ± 0.13 kg/m3. For the same compound, the mass density ([2]; 343.15 K) was 842.604 ± 0.13 kg/m3, the mass density ([2]; 353.15 K) was 833.288 ± 0.13 kg/m3 and the mass density ([2]; 363.15 K) was 823.754 ± 0.14 kg/m3.

Reference: the NIST ThermoML archive (doi:10.1021/je400679k)
